Assay results from the NIST ThermoML archive (doi:10.1021/je050428j).
Numbers after ± are expanded uncertainties.

Conditions: 298.15 K; 101.33 kPa; Liquid; Vibrating tube method

| SMILES | mass density [kg/m3] |
| --- | --- |
| CCCCCCCCC [nonane] | 714.064 ± 0.41 |
| CCCCCC [hexane] | 655.248 ± 0.28 |
| CN(C)C=O [dimethylformamide] | 943.875 ± 0.25 |
| CCCCCCC [heptane] | 679.627 ± 0.27 |
| CC(=O)N(C)C [N,N-dimethylethanamide] | 936.214 ± 0.48 |
| CCCCCCCC [octane] | 698.636 ± 0.41 |
